According to patent publication US20050130989A1, “N-arylheteroaromatic products compositions containing them and use thereof” (Aventis Pharma S. A., priority 2003, published 2005):

Assays:
HCT116 cells = test: Inhibition of proliferation of the human colon tumor line HCT116 ([14C]-thymidine incorporation); format: cell-based; conditions: Homo sapiens, HCT-116, 48 h, 48 hours at 37° C., read-out: Inhibition of HCT116 proliferation IC 50 (μm)
Protocol: The proliferation of HCT116 cells is evaluated by measuring the incorporation of [^14C]-thymidine in the following manner. The HCT 116 cells (obtained from the ATCC) are cultured in a DMEM medium (Gibco) containing 10% fetal calf serum and antibiotics (1% penicillin, 1% streptomycin). To perform the proliferation test, the cells are inoculated in cytostar 96-well microplates (Amersham), at a rate of 5000 cells per well. [^14C]-thymidine (0.1 μCi/well) and the products to be evaluated are then added. Variable concentrations of products up to 10 μm are used; the DMSO (solvent used to dissolve the products) should not exceed 0.5% in the medium. 48 hours after incubation at 37° C., the radioactivity incorporated into the cells is measured by counting the plate in a TRI-LUX counter (Wallac). The IC50 is defined as the concentration of product that reduces the radioactivity by 50% compared with an untreated control. A product whose IC50 is less than 3 μm is considered cytotoxic.

tubulin = target: T1, tubulin (Sus scrofa, UniProt P02550+P02554); test: Evaluation of the inhibition of tubulin polymerization (turbidimetry); format: biochemical, pig; conditions: tubulin 10 μm (1 mg/ml), 37° C., turbidity at 350 nm; concentration that inhibits the rate of polymerization by 50%; read-out: Inhibition of tubulin polymerization IC 50 (μm)
T1 construct: Tubulin is purified from pig brain according to published methods; from tissue; host or cells: pig brain
Summary of the method: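 Pig brain tubulin (>95% pure), 10 μm in MES pH 6.8/30% glycerol buffer plus 1 mM GTP and 6 mM MgCl2, with compound at 0.5–10 μm added before polymerization. Polymerization triggered by shift from 6° C to 37° C, followed by turbidity at 350 nm; IC50 is 50% inhibition of polymerization rate.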

T1 sequence (P02550 whole entry): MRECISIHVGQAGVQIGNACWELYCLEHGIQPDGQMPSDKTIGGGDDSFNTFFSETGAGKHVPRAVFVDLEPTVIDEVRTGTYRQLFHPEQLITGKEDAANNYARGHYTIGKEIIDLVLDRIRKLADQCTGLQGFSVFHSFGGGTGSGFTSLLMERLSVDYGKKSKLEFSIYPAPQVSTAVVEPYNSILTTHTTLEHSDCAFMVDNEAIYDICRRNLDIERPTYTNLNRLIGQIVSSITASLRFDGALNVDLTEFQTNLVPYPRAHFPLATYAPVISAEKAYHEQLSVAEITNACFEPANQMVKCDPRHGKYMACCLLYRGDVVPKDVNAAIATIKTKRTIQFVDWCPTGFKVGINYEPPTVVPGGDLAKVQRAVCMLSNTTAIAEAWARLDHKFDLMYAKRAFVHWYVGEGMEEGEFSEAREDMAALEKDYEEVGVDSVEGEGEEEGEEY
T1 sequence (P02554 whole entry): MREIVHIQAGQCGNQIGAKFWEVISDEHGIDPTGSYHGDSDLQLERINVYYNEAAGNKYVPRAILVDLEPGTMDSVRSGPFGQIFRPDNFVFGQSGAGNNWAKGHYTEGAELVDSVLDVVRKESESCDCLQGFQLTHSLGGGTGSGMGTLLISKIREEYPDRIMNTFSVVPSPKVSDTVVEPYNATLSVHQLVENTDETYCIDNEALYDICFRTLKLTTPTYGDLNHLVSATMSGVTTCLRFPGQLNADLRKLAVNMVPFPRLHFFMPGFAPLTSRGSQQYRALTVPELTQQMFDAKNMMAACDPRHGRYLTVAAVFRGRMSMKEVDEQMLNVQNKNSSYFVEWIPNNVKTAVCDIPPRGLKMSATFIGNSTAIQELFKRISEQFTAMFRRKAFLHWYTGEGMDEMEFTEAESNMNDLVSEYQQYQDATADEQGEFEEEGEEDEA

SMILES	IC50 (HCT116 cells) [µM]	IC50 (tubulin) [µM]
COc1cccc(-n2nc(C)cc2C(=O)N2CCN(c3ccc(Cl)c(Cl)c3)CC2)c1 [3/81]	0.295	3.5
Cc1cc(C(=O)N2CCN(c3ccccc3C(F)(F)F)CC2)n(-c2ccccc2)n1 [3/84]	0.176	5.5
Cc1cc(C(=O)N2CCN(c3ccc(C)c(C)c3)CC2)n(-c2ccccc2F)n1 [3/86]	0.385	12.5
Cc1cc(C(=O)N2CCN(c3ccccc3C)CC2)n(-c2ccccc2F)n1 [3/87]	0.238	15
Cc1cc(C(=O)N2CCN(c3ccc(F)cc3)CC2)n(-c2cccc(F)c2)n1 [3/92]	0.158	12.5
CCc1ccccc1N1CCN(C(=O)c2cc(C)nn2-c2cccc(F)c2)CC1 [3/95]	0.164	3
Cc1cc(C(=O)N2CCN(c3ccccc3)CC2)n(-c2ccc(F)cc2)n1 [3/101]	0.569	5
COc1ccccc1N1CCN(C(=O)c2cc(C)nn2-c2ccc(F)cc2)CC1 [3/102]	0.181	13
CCc1ccccc1N1CCN(C(=O)c2cc(C)nn2-c2ccc(F)cc2)CC1 [3/104]	0.285	5
COc1ccc(-n2nc(C)cc2C(=O)N2CCN(c3cccc(Cl)c3Cl)CC2)cc1 [3/106]	0.985	7
Cc1cccc(N2CCN(C(=O)c3cc(C)nn3-c3ccccc3)CC2C)c1 (centres unmarked) [3/109]	4.33	8
Cc1cc(C(=O)N2CCN(c3ccccc3Cl)CC2)n(-c2ccccc2)n1 [3/112]	1.52	15
Cc1cc(C(=O)N2CCN(c3cccc(Cl)c3Cl)CC2)n(-c2ccc(F)cc2)n1 [3/119]	0.562	3.1
Cc1cc(C(=O)N2CCN(c3ccccc3C(F)(F)F)CC2)n(-c2cccc(Cl)c2)n1 [3/128]	0.901	12
Cc1cc(C(=O)N2CCN(c3cccc(Cl)c3Cl)CC2)n(-c2ccc(Cl)cc2)n1 [3/129]	2.56	< 25
Cc1ccc(-n2nc(C)cc2C(=O)N2CCN(c3cccc(Cl)c3Cl)CC2)cc1 [3/132]	3.1	20
COc1cccc(-n2nc(C)cc2C(=O)N2CCN(c3cccc(C(F)(F)F)c3)CC2)c1 [3/133]	0.214	6.2
COc1cccc(-n2nc(C)cc2C(=O)N2CCN(c3cccc(C)c3C)CC2)c1 [3/135]	0.321	6
CCc1ccccc1N1CCN(C(=O)c2cc(C)nn2-c2cccc(OC)c2)CC1 [3/136]	0.932	12.5
COc1cccc(-n2nc(C)cc2C(=O)N2CCN(c3cccc4ccccc34)CC2)c1 [3/138]	20	< 25
COc1cccc(-n2nc(C)cc2C(=O)N2CCN(c3cccc(Cl)c3Cl)CC2)c1 [3/139]	1.35	< 25
COc1cccc(-n2nc(C)cc2C(=O)N2CCN(c3ccc4c(c3)OCCO4)CC2)c1 [3/140]	2.97	< 25
Cc1cc(C(=O)N2CCN(c3ccccc3C(F)(F)F)CC2)n(-c2ccccc2F)n1 [3/145]	1.51	10
Cc1cc(C(=O)N2CCN(c3ccccc3C)CC2)n(-c2ccc(F)cc2)n1 [3/147]	1.29	7
Cc1cc(C(=O)N2CCN(c3cccc(C)c3C)CC2)n(-c2ccc(F)cc2)n1 [3/148]	0.198	1.5

More lines, in order of falling IC50 (HCT116 cells), values ahead:

IC50 (HCT116 cells) [µM]	IC50 (tubulin) [µM]	SMILES
0.157	7	CCOc1ccccc1N1CCN(C(=O)c2cc(C)nn2-c2cccc(F)c2)CC1 [3/98]
0.148	12.5	Cc1cc(C(=O)N2CCN(c3cccc(Cl)c3Cl)CC2)n(-c2cccc(Cl)c2)n1 [3/125]
0.141	3	Cc1cccc(-n2nc(C)cc2C(=O)N2CCN(c3cccc(Cl)c3Cl)CC2)c1 [3/116]
0.14	2.5	Cc1cc(C(=O)N2CCN(c3cccc4ccccc34)CC2)n(-c2ccccc2F)n1 [3/143]
0.135	3.1	Cc1ccc(-n2nc(C)cc2C(=O)N2CCN(c3cccc(C(F)(F)F)c3)CC2)cc1 [3/131]
0.118	4.5	COc1ccc(-n2nc(C)cc2C(=O)N2CCN(c3cccc(OC)c3)CC2)cc1 [3/105]
0.11	3.8	CCc1ccccc1N1CCN(C(=O)c2cc(C)nn2-c2ccccc2F)CC1 [3/142]
0.083	3	CSc1ccccc1N1CCN(C(=O)c2cc(C)nn2-c2cccc(F)c2)CC1 [3/97]
0.075	1.2	Cc1cccc(-n2nc(C)cc2C(=O)N2CCN(c3ccc(Cl)c(Cl)c3)CC2)c1 [3/113]
0.066	7	Cc1cc(C(=O)N2CCN(c3cccc(C)c3C)CC2)n(-c2ccccc2F)n1 [3/141]
0.0605	6	COc1ccc(Cl)cc1N1CCN(C(=O)c2cc(C)nn2-c2ccccc2F)CC1 [3/88]
0.051	3.3	Cc1cc(C(=O)N2CCN(c3cccc(C(F)(F)F)c3)CC2)n(-c2cccc(Cl)c2)n1 [3/121]
0.051	3.3	Cc1cccc(N2CCN(C(=O)c3cc(C)nn3-c3cccc(Cl)c3)CC2)c1 [3/123]
0.043	1.3	Cc1cc(C(=O)N2CCN(c3ccc(Cl)c(Cl)c3)CC2)n(-c2ccc(F)cc2)n1 [3/146]
0.041	2	Cc1cc(C(=O)N2CCN(c3cccc(Cl)c3Cl)CC2)n(-c2cccc(F)c2)n1 [3/99]
0.033	3	COc1ccccc1N1CCN(C(=O)c2cc(C)nn2-c2cccc(F)c2)CC1 [3/90]
0.032	1.7	Cc1cc(C(=O)N2CCN(c3ccc(Cl)c(Cl)c3)CC2)n(-c2cccc(F)c2)n1 [3/93]

IC50 (HCT116 cells) [µM]	IC50 (tubulin) [µM]	SMILES
0.032	0.8	Cc1cc(C(=O)N2CCN(c3cccc(C)c3C)CC2)n(-c2cccc(F)c2)n1 [3/94]
0.0224	2.2	Cc1cc(C(=O)N2CCN(c3cccnc3)CC2)n(-c2ccccc2)n1 [3/153]
0.0221	1.7	Cc1cc(C(=O)N2CCN(c3ccc(C)c(Cl)c3)CC2)n(-c2ccccc2)n1 [3/151]
0.0142	1	Cc1cc(C(=O)N2CCN(c3cccc(O)c3)CC2)n(-c2ccccc2)n1 [Example E13, [4-(3-Hydroxyphenyl)piperazin-1-yl](5-methyl-2-phenyl-2H-pyrazol-3-yl)-methanone]
0.014	2.2	Cc1cc(C(=O)N2CCN(c3ccccc3)CC2)n(-c2cccc(F)c2)n1 [3/89]
0.014	1.5	Cc1cc(C(=O)N2CCN(c3cccc(C(F)(F)F)c3)CC2)n(-c2cccc(F)c2)n1 [3/91]
0.011	1.4	Cc1cc(C(=S)N2CCN(c3cccc(Cl)c3)CC2)n(-c2ccccc2)n1 [Example E7, [4-(3-Chlorophenyl)piperazin-1-yl](5-methyl-2-phenyl-2H-pyrazol-3-yl)-methanethione]
0.0083	1.2	COc1cccc(N2CCN(C(=O)c3cc(C)nn3-c3cccc(OC)c3)CC2)c1 [3/82]
0.0066	1.5	COc1ccc(Cl)cc1N1CCN(C(=O)c2cc(C)nn2-c2ccccc2)CC1 [3/83]
0.0063	0.8	Cc1cc(C(=O)N2CCN(c3cccc(F)c3)CC2)n(-c2ccccc2)n1 [3/152]
0.0055	1.1	Cc1cccc(N2CCN(C(=O)c3cc(C)nn3-c3ccccc3)CC2)n1 [3/150]
0.0047	1.3	Cc1cc(C(=O)N2CCN(c3cccc(Cl)n3)CC2)n(-c2ccccc2)n1 [Example E4, [4-(6-Chloropyrid-2-yl)piperazin-1-yl](5-methyl-2-phenyl-2H-pyrazol-3-yl)-methanone]
0.0041	1.2	O=C(c1ccnn1-c1ccccc1)N1CCN(c2cccc(Cl)c2)CC1 [Example 5, [4-(3-Chlorophenyl)piperazin-1-yl](2-phenyl-2H-pyrazol-3-yl)methanone]
0.0036	1.8	COc1cccc(N2CCN(C(=O)c3cc(C)nn3-c3cccc(F)c3)CC2)c1 [3/96]
0.003	0.8	Cc1cc(C(=O)N2CCN(c3cccc([N+](=O)[O-])c3)CC2)n(-c2ccccc2)n1 [Example E5, [4-(3-Nitrophenyl)piperazin-1-yl](5-methyl-2-phenyl-2H-pyrazol-3-yl)-methanone]
0.0001	1.5	Cc1cc(C(=O)N2CCN(c3cc(Cl)cc(Cl)c3)CC2)n(-c2ccccc2)n1 [Example E2, [4-(3,5-Dichlorophenyl)piperazin-1-yl](5-methyl-2-phenyl-2H-pyrazol-3-yl)methanone]
